Measured values taken from patent US7759345B2, “Antitumoral derivatives of ET-743” (priority 2001, dated 2010).

Columns and labels:
[1] = tested on: K-562; experiment: Inhibition of cells growth by colorimetric assay (SRB), K-562; assay type: cell-based; settings: for GI50 / LC50 (50% cell killing): Homo sapiens, K562, 48 h; for GI50 / K-562 TGI: SRB assay, 48 hours exposure; for GI50: read-out: K-562 GI50; for LC50 (50% cell killing): read-out: K-562 LC50, SRB assay, 48 hours exposure
Outline: (§1)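 Cells in RPMI 1640 with 10% FBS were seeded at 5×10^3 per well, allowed 18 h to attach, then exposed to compound (10 to 10^−8 μg/ml, in DMSO/EtOH/PBS 0.5:0.5:99) for 48 h. After TCA fixation and SRB staining, bound dye was solubilized in Tris and OD read at 490 nm; GI, TGI and LC derived from triplicates.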

[2] = tested on: A-549; experiment: Inhibition of cells growth by colorimetric assay (SRB), A-549; assay type: cell-based; settings: for GI50 / LC50 (concentration for 50% cell killing): Homo sapiens, A549, 48 h; for GI50 / A-549 TGI: SRB assay, 48 hours exposure; for GI50: read-out: A-549 GI50; for LC50 (concentration for 50% cell killing): read-out: A-549 LC50, SRB assay, 48 hours exposure
Outline: as §1

[3] = tested on: SK-MEL-28; experiment: Inhibition of cells growth by colorimetric assay (SRB), SK-MEL-28; assay type: cell-based; settings: for GI50 / CC50: Homo sapiens, SK-MEL-28, 48 h; for GI50 / MEL-28 TGI: SRB assay, 48 hours exposure; for GI50: read-out: MEL-28 GI50; for CC50: read-out: MEL-28 LC50, SRB assay, 48 hours exposure
Outline: as §1

[4] = tested on: HT-29; experiment: Inhibition of cells growth by colorimetric assay (SRB), HT-29; assay type: cell-based; settings: for GI50 / LC50 (concentration for 50% cell killing): Homo sapiens, HT-29, 48 h; for GI50 / HT-29 TGI: SRB assay, 48 hours exposure; for GI50: read-out: HT-29 GI50; for LC50 (concentration for 50% cell killing): read-out: HT-29 LC50, SRB assay, 48 hours exposure
Outline: as §1

[5] = tested on: LoVo; experiment: Inhibition of cells growth by colorimetric assay (SRB), LoVo; assay type: cell-based; settings: for GI50 / LC50 (concentration for 50% cell killing): Homo sapiens, LoVo, 48 h; for GI50 / LOVO TGI: SRB assay, 48 hours exposure; for GI50: read-out: LOVO GI50; for LC50 (concentration for 50% cell killing): read-out: LOVO LC50, SRB assay, 48 hours exposure
Outline: as §1

[6] = tested on: LoVo-Dox; experiment: Inhibition of cells growth by colorimetric assay (SRB), LoVo-Dox; assay type: cell-based; settings: for GI50 / CC50: Homo sapiens, 48 h; for GI50 / LOVO-DOX TGI: SRB assay, 48 hours exposure; for GI50: read-out: LOVO-DOX GI50; for CC50: read-out: LOVO-DOX LC50, SRB assay, 48 hours exposure
Outline: as §1

[7] = tested on: DU-145; experiment: Inhibition of cells growth by colorimetric assay (SRB), DU-145; assay type: cell-based; settings: for GI50 / CC50: Homo sapiens, DU-145, 48 h; for GI50 / DU-145 TGI: SRB assay, 48 hours exposure; for GI50: read-out: DU-145 GI50; for CC50: read-out: DU-145 LC50, SRB assay, 48 hours exposure
Outline: as §1

[8] = tested on: LNCaP; experiment: Inhibition of cells growth by colorimetric assay (SRB), LNCaP; assay type: cell-based; settings: for GI50 / CC50: Homo sapiens, LNCaP, 48 h; for GI50: read-out: LNCAP GI50, SRB assay, 48 hours exposure; for CC50: read-out: LNCAP LC50, SRB assay, 48 hours exposure; for LNCAP TGI: SRB assay, 48 hours exposure
Outline: as §1

[9] = tested on: SK-BR-3; experiment: Inhibition of cells growth by colorimetric assay (SRB), SK-BR-3; assay type: cell-based; settings: for GI50 / CC50: Homo sapiens, SK-BR-3, 48 h; for GI50 / SK-BR3 TGI: SRB assay, 48 hours exposure; for GI50: read-out: SK-BR3 GI50; for CC50: read-out: SK-BR3 LC50, SRB assay, 48 hours exposure
Outline: as §1

[10] = tested on: IGROV-1; experiment: Inhibition of cells growth by colorimetric assay (SRB), IGROV-1; assay type: cell-based; settings: for GI50 / CC50: Homo sapiens, IGROV-1, 48 h; for GI50 / IGROV TGI: SRB assay, 48 hours exposure; for GI50: read-out: IGROV GI50; for CC50: read-out: IGROV LC50, SRB assay, 48 hours exposure
Outline: as §1

[11] = tested on: IGROV-ET; experiment: Inhibition of cells growth by colorimetric assay (SRB), IGROV-ET; assay type: cell-based; settings: for GI50 / CC50: Homo sapiens, 48 h; for GI50 / IGROV-ET TGI: SRB assay, 48 hours exposure; for GI50: read-out: IGROV-ET GI50; for CC50: read-out: IGROV-ET LC50, SRB assay, 48 hours exposure
Outline: as §1

[12] = tested on: SK-OV-3; experiment: Inhibition of cells growth by colorimetric assay (SRB), SK-OV-3; assay type: cell-based; settings: for GI50 / LC50: Homo sapiens, SK-OV-3, 48 h; for GI50 / SK-OV3 TGI: SRB assay, 48 hours exposure; for GI50: read-out: SK-OV3 GI50; for LC50: read-out: SK-OV3 LC50, SRB assay, 48 hours exposure
Outline: as §1

[13] = tested on: PANC-1; experiment: Inhibition of cells growth by colorimetric assay (SRB), PANC-1; assay type: cell-based; settings: for GI50 / LC50 (concentration for 50% net cell kill): Homo sapiens, PANC-1, 48 h; for GI50 / PANC-1 TGI: SRB assay, 48 hours exposure; for GI50: read-out: PANC-1 GI50; for LC50 (concentration for 50% net cell kill): read-out: PANC-1 LC50, SRB assay, 48 hours exposure
Outline: as §1

[14] = tested on: HMEC1; experiment: Inhibition of cells growth by colorimetric assay (SRB), HMEC1; assay type: cell-based; settings: for GI50 / LC50: Homo sapiens, HMEC-1, 48 h; for GI50 / HMEC-1 TGI: SRB assay, 48 hours exposure; for GI50: read-out: HMEC-1 GI50; for LC50: read-out: HMEC-1 LC50, SRB assay, 48 hours exposure
Outline: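 First, cells were plated at 5×10^3 per well and left 18 h to attach. Next, compound was added over 10 to 10^−8 μg/ml for 48 h. Finally, cells were TCA-fixed, SRB-stained and absorbance read at 490 nm.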

[15] = tested on: Liver
Description: (§2) Toxicity was asssessed by the methods reported in Toxicology in Vitro, 15 (2001) 571-577, J. Luber Narod et al.: “Evaluation of the use of in vitro methodolodies as tools for screening new compounds for potential in vivo toxicity”.

[16] = tested on: Heart
Description: as §2

[17] = tested on: Myelo
Description: as §2

[18] = tested on: Skeletal
Description: as §2

[19] = tested on: Kidney
Description: as §2

Question: With `COc1cc2c(cc1OC(=O)OC(C)(C)C)CCN[C@]21CS[C@@H]2c3c(OC(=O)[C@H](C)NC(=O)OC(C)(C)C)c(C)c4c(c3[C@H](COC1=O)N1C2[C@H]2c3c(cc(C)c(OC)c3O)C[C@@H]([C@@H]1O)N2C)OCO4` (stereo partly shown) [Compound 175] as the molecule, how does the GI50 [1] read?
Answer: 0.293 nM

Question: And the LC50 (50% cell killing) [1]?
Answer: 0.775 nM

Question: And the “K-562 TGI” value [1]?
Answer: 4.76E-10

Question: What about the GI50 [2] of the same molecule?
Answer: 2.25 nM

Question: What about the LC50 (concentration for 50% cell killing) [2] of the same molecule?
Answer: 7.97 nM

Question: And the “A-549 TGI” value [2]?
Answer: 4.24E-09

Question: What about the GI50 [3] of the same molecule?
Answer: 3.28 nM

Question: What about the CC50 [3] of the same molecule?
Answer: 25.2 nM

Question: And the “MEL-28 TGI” value [3]?
Answer: 6.63E-09

Question: What about the GI50 [4] of the same molecule?
Answer: 4.15 nM

Question: What about the LC50 (concentration for 50% cell killing) [4] of the same molecule?
Answer: 10100 nM

Question: And the “HT-29 TGI” value [4]?
Answer: 1.54E-08

Question: And the GI50 [5]?
Answer: 2.3 nM

Question: What about the LC50 (concentration for 50% cell killing) [5] of the same molecule?
Answer: 8.33 nM

Question: What about the “LOVO TGI” value [5] of the same molecule?
Answer: 4.38E-09

Question: What about the GI50 [6] of the same molecule?
Answer: 43.3 nM

Question: And the CC50 [6]?
Answer: 10100 nM

Question: And the “LOVO-DOX TGI” value [6]?
Answer: 1.55E-07

Question: What about the GI50 [7] of the same molecule?
Answer: 3.67 nM

Question: And the CC50 [7]?
Answer: 10100 nM

Question: What about the “DU-145 TGI” value [7] of the same molecule?
Answer: 9.20E-09

Question: What about the GI50 [8] of the same molecule?
Answer: 0.382 nM

Question: What about the CC50 [8] of the same molecule?
Answer: 3.64 nM

Question: What about the “LNCAP TGI” value [8] of the same molecule?
Answer: 1.12E-09

Question: And the GI50 [9]?
Answer: 1.31 nM

Question: What about the CC50 [9] of the same molecule?
Answer: 13.2 nM

Question: What about the “SK-BR3 TGI” value [9] of the same molecule?
Answer: 3.78E-09

Question: And the GI50 [10]?
Answer: 0.641 nM

Question: What about the CC50 [10] of the same molecule?
Answer: 8.13 nM

Question: And the “IGROV TGI” value [10]?
Answer: 2.37E-09

Question: What about the GI50 [11] of the same molecule?
Answer: 3.97 nM

Question: What about the CC50 [11] of the same molecule?
Answer: 1720 nM

Question: What about the “IGROV-ET TGI” value [11] of the same molecule?
Answer: 9.56E-09

Question: What about the GI50 [12] of the same molecule?
Answer: 3.56 nM

Question: And the LC50 [12]?
Answer: 10100 nM

Question: What about the “SK-OV3 TGI” value [12] of the same molecule?
Answer: 8.77E-09

Question: What about the GI50 [13] of the same molecule?
Answer: 4.38 nM

Question: And the LC50 (concentration for 50% net cell kill) [13]?
Answer: 10100 nM

Question: What about the “PANC-1 TGI” value [13] of the same molecule?
Answer: 1.33E-08

Question: And the GI50 [14]?
Answer: 3.54 nM

Question: And the LC50 [14]?
Answer: 10100 nM

Question: And the “HMEC-1 TGI” value [14]?
Answer: 1.29E-08

Question: What about the “Toxicity Data Liver” value [15] of the same molecule?
Answer: 3.87E-09

Question: What about the “Toxicity Data Heart” value [16] of the same molecule?
Answer: 2.82E-09

Question: And the “Toxicity Data Myelo” value [17]?
Answer: 1.59E-08

Question: What about the “Toxicity Data Skeletal” value [18] of the same molecule?
Answer: 2.12E-07

Question: And the “Toxicity Data Kidney” value [19]?
Answer: 2.84E-09

Question: Which results are given for `C=COC(=O)Oc1c(C)c2c(c3c1[C@H]1SC[C@]4(NCCc5cc(OC(=O)OC(C)(C)C)c(OC)cc54)C(=O)OC[C@@H]3N3C1[C@H]1c4c(cc(C)c(OC)c4O)C[C@@H]([C@@H]3O)N1C)OCO2` (stereo partly shown) [Compound 176]?
Answer: GI50 [1]: 0.737 nM; LC50 (50% cell killing) [1]: 6.89 nM; K-562 TGI [1]: 1.52E-09; GI50 [2]: 2.75 nM; LC50 (concentration for 50% cell killing) [2]: 11.2 nM; A-549 TGI [2]: 6.01E-09; GI50 [3]: 25.8 nM; CC50 [3]: 95.6 nM; MEL-28 TGI [3]: 4.97E-08; GI50 [4]: 3.83 nM; LC50 (concentration for 50% cell killing) [4]: 11200 nM; HT-29 TGI [4]: 7.96E-09; GI50 [5]: 11.1 nM; LC50 (concentration for 50% cell killing) [5]: 112 nM; LOVO TGI [5]: 5.12E-08; GI50 [6]: 47.3 nM; CC50 [6]: 11200 nM; LOVO-DOX TGI [6]: 1.15E-06; GI50 [7]: 5.24 nM; CC50 [7]: 8360 nM; DU-145 TGI [7]: 1.10E-08; GI50 [8]: 1.62 nM; CC50 [8]: 6.49 nM; LNCAP TGI [8]: 3.25E-09; GI50 [9]: 2.7 nM; CC50 [9]: 40.6 nM; SK-BR3 TGI [9]: 7.73E-09; GI50 [10]: 1.74 nM; CC50 [10]: 10.7 nM; IGROV TGI [10]: 4.30E-09; GI50 [11]: 4.88 nM; CC50 [11]: 3450 nM; IGROV-ET TGI [11]: 3.38E-08; GI50 [12]: 3.26 nM; LC50 [12]: 11 nM; SK-OV3 TGI [12]: 8.07E-09; GI50 [13]: 5.31 nM; LC50 (concentration for 50% net cell kill) [13]: 3200 nM; PANC-1 TGI [13]: 1.97E-08; GI50 [14]: 3.46 nM; LC50 [14]: 11200 nM; HMEC-1 TGI [14]: 1.48E-07; Toxicity Data Liver [15]: 2.95E-08; Toxicity Data Heart [16]: 1.98E-08; Toxicity Data Myelo [17]: 1.42E-08; Toxicity Data Skeletal [18]: 2.41E-08; Toxicity Data Kidney [19]: 2.80E-09
